Each structure is given as a SMILES string. Where two headings read alike, the source gives them in different places.

`c1cc2cc(c1)OCCCNc1cc(ccn1)-c1ccnc(n1)N2` had a ring closure, yield of all isomers (from Oc1cccc(Nc2nccc(-c3ccnc(NCCCBr)c3)n2)c1, ether bond, K2CO3, acetone, 6.5 mM, 56.0 °C, 3.0 h, 2 steps) of 26.5%.
`c1cc2cc(c1)OCCCNc1ncccc1-c1ccnc(n1)N2` showed a ring closure, yield of all isomers (from Oc1cccc(Nc2nccc(-c3cccnc3NCCCBr)n2)c1, ether bond, K2CO3, acetone, 19.3 mM, 56.0 °C, 6.0 h, 3 steps) of 34.6%.
For `O=C1Cc2cccc(c2)Nc2nccc(n2)-c2ccnc(c2)NCCCN1`, the ring closure, yield of all isomers (from NCCCNc1cc(-c2ccnc(Nc3cccc(CC(=O)O)c3)n2)ccn1, amide bond, HATU, DMF, 1.52 mM, 0.0 °C, 3.0 h) amounted to 74.2%.

Source of the values: patent US7151096.
